# Measurements from patent US9907601B2, “Methods and systems for chemical ablation” (Regents of the University of Minnesota, priority 2009, dated 2018).
# Like-named read-outs stand apart in the source and are kept apart here.
# What was measured:
# [1] = In vitro injection of substrate and sodium permanganate solutions into a beaker, reaction temperature by thermocouple; type: physicochemical; conditions: for Average maximum temperature increase (° C.) Permanganate first / Average peak temperature (° C.) Permanganate first / Average maximum temperature increase (° C.) Simultaneous / Average peak temperature (° C.) Simultaneous / Average maximum temperature increase (° C.) Substrate first / Average peak temperature (° C.) Substrate first: substrate 1M/1 mL; for average maximum temperature: simultaneous injections, substrate 180 g/L, permanganate (1M, 1 mL)
# Method: In vitro studies: All reagents were obtained from Sigma-Aldrich Chemical Co. (St. Louis, Mo.) unless otherwise noted. […] Exemplary reaction products of glycerol oxidation by permanganate include tartronic acid and glyceric acid (FIG. 8). Reaction temperature was measured by a thermocouple probe (type T MT-29/1; Physitemp Instruments, Clifton, N.J.) placed at the center of the beaker, with the tip submerged underneath the surface of the mixed solutions. Temperature recordings were made by a T-type thermocouple thermometer (Digi-Sense; Cole-Parmer, Vernon Hills, Ill.) at time intervals of 1 to 3 seconds from the onset of injections until the temperature dropped below 40° C. A series of different permanganate volumes (1, 2, and 3 mL) and concentrations (1 and 2M) were tested in order to study the effects of volume and concentration on temperature. Selected experiments were repeated with glucose, sucrose, maltodextrin (4-7 glucose unit average), and dextrin as substrates. The remaining substrates were different polysaccharides (starch, cellulose and glycogen) and polyvinyl alcohol. See, FIG. 9. All were used as 180 g/L (carbohydrates based on glucose) solutions and/or suspensions rather than expressing concentration in molarity due to their polymeric nature.
# HepG2 cells = conditions: Castañeda and Kinne 2000; cited from earlier work
# [2] = tested on: osteosarcoma cell line 143B; type: cell-based
# [3] = tested on: breast cancer cell line MCF-7; assay: MTT cell viability assay, MCF-7
# Method: Cells were plated in 96-well plates for the MTT assays at a concentration of 3×10^5 cells per well overnight prior to performing the assays.
# Cell viability assay: Cell viability assays were performed using as a substrate the MTT reagent 3-(4,5-Dimethylthiazol-2-yl)-2,5-diphenyltetrazolium bromide (Sigma-Aldrich, St. Louis, Mo.) at a concentration of 10 μg/100 μl. Growth medium was aspirated from the wells and cells were washed twice with 1×PBS. […] One hundred μl of MTT substrate was added to each well in a 96-well plate and plates were incubated for 1 hour at 37° C. Cells were then gently washed in 1×PBS and 100 μl stop solution (acidified phenol) was added to each well. Plates were incubated again at 37° C. for 30 minutes and the colorimetric changes in the cells were measured using a plate reader at 570 nm. Only the live viable cells are able to convert yellow colored MTT reagent into purple colored formazan.
# HuH-7 cells [4] = tested on: HuH-7 cells
# MCF-7 cells = assay: DNA fragmentation assay, MCF-7; type: cell-based, human
# Method: (§1) Cell lysates were incubated at 37° C. for 3 hours, and the samples were centrifuged at 13,000 rpm for 30 minutes. Supernatants containing DNA were extracted with phenol-chloroform and precipitated with ethanol. Equal amounts of DNA were resolved on a 2% agarose gel containing ethidium bromide, and bands corresponding to nucleosomes were visualized under ultra violet light.
# 143B cells = assay: DNA fragmentation assay, 143B; type: cell-based, human
# Method: as §1
# HuH-7 cells [5] = assay: DNA fragmentation assay, HuH-7; type: cell-based, human; conditions: 1 M urea for 2 hours
# Method: as §1
# [6] = NaMnO4 (1M/1 mL), permanganate first
# [7] = NaMnO4 (1M/1 mL), simultaneous injection
# [8] = NaMnO4 (1M/1 mL), substrate first
# [9] = NaMnO4 (1M/2 mL), permanganate first
# [10] = NaMnO4 (1M/2 mL), simultaneous injection
# [11] = NaMnO4 (1M/2 mL), substrate first
# [12] = NaMnO4 (1M/3 mL), permanganate first
# [13] = NaMnO4 (1M/3 mL), simultaneous injection
# [14] = NaMnO4 (1M/3 mL), substrate first
# [15] = NaMnO4 (2M/1 mL), permanganate first
# [16] = NaMnO4 (2M/1 mL), simultaneous injection
# [17] = NaMnO4 (2M/1 mL), substrate first
# [18] = 3% ethanol, exposure for 2 hours
compound,measurement,setting,value
"OCC(O)CO [Glycerol, glycerol]",Average maximum temperature increase (° C.) Permanganate first,[1]; [6],37.6 °C
same,Average peak temperature (° C.) Permanganate first,[1]; [6],59.3 °C
same,Average maximum temperature increase (° C.) Simultaneous,[1]; [7],41.4 °C
same,Average peak temperature (° C.) Simultaneous,[1]; [7],63.9 °C
same,Average maximum temperature increase (° C.) Substrate first,[1]; [8],48.4 °C
same,Average peak temperature (° C.) Substrate first,[1]; [8],71.1 °C
same,Average maximum temperature increase (° C.) Permanganate first,[1]; [9],48.5 °C
same,Average peak temperature (° C.) Permanganate first,[1]; [9],70.3 °C
same,Average maximum temperature increase (° C.) Simultaneous,[1]; [10],66.3 °C
same,Average peak temperature (° C.) Simultaneous,[1]; [10],89.1 °C
same,Average maximum temperature increase (° C.) Substrate first,[1]; [11],64.4 °C
same,Average peak temperature (° C.) Substrate first,[1]; [11],86.7 °C
same,Average maximum temperature increase (° C.) Permanganate first,[1]; [12],55.3 °C
same,Average peak temperature (° C.) Permanganate first,[1]; [12],77.9 °C
same,Average maximum temperature increase (° C.) Simultaneous,[1]; [13],66.6 °C
same,Average peak temperature (° C.) Simultaneous,[1]; [13],90.6 °C
same,Average maximum temperature increase (° C.) Substrate first,[1]; [14],67.5 °C
same,Average peak temperature (° C.) Substrate first,[1]; [14],90.3 °C
same,Average maximum temperature increase (° C.) Permanganate first,[1]; [15],75.4 °C
same,Average peak temperature (° C.) Permanganate first,[1]; [15],97.0 °C
same,Average maximum temperature increase (° C.) Simultaneous,[1]; [16],74.5 °C
same,Average peak temperature (° C.) Simultaneous,[1]; [16],97.4 °C
same,Average maximum temperature increase (° C.) Substrate first,[1]; [17],76.9 °C
same,Average peak temperature (° C.) Substrate first,[1]; [17],99.1 °C
same,"average maximum temperature, permanganate first","[1]; volume of substrate (1M) raised to 2 mL, permanganate 1M, permanganate first",54.1 °C
same,"average maximum temperature, simultaneous","[1]; volume of substrate (1M) raised to 2 mL, permanganate 1M, simultaneous injection",53.1 °C
same,"average maximum temperature, substrate first","[1]; volume of substrate (1M) raised to 2 mL, permanganate 1M, substrate first",56.7 °C
"OC[C@H]1O[C@@](CO)(O[C@H]2O[C@H](CO)[C@@H](O)[C@H](O)[C@H]2O)[C@@H](O)[C@@H]1O [Sucrose, sucrose]","average maximum temperature, permanganate-first","[1]; concentration of the sucrose solution (1 mL) raised to 2M, permanganate-first",100.0 °C
same,"average maximum temperature, simultaneous","[1]; concentration of the sucrose solution (1 mL) raised to 2M, simultaneous injection",100.2 °C
same,"average maximum temperature, sucrose-first","[1]; concentration of the sucrose solution (1 mL) raised to 2M, sucrose-first",99.8 °C
same,Average maximum temperature increase (° C.) Permanganate first,[1]; [6],24.9 °C
same,Average peak temperature (° C.) Permanganate first,[1]; [6],46.4 °C
same,Average maximum temperature increase (° C.) Simultaneous,[1]; [7],33.5 °C
same,Average peak temperature (° C.) Simultaneous,[1]; [7],56.8 °C
same,Average maximum temperature increase (° C.) Substrate first,[1]; [8],37.1 °C
same,Average peak temperature (° C.) Substrate first,[1]; [8],58.9 °C
same,Average maximum temperature increase (° C.) Permanganate first,[1]; [9],42.1 °C
same,Average peak temperature (° C.) Permanganate first,[1]; [9],64.9 °C
same,Average maximum temperature increase (° C.) Simultaneous,[1]; [10],51.0 °C
same,Average peak temperature (° C.) Simultaneous,[1]; [10],73.6 °C
same,Average maximum temperature increase (° C.) Substrate first,[1]; [11],60.0 °C
same,Average peak temperature (° C.) Substrate first,[1]; [11],82.1 °C
same,Average maximum temperature increase (° C.) Permanganate first,[1]; [12],51.5 °C
same,Average peak temperature (° C.) Permanganate first,[1]; [12],74.6 °C
same,Average maximum temperature increase (° C.) Simultaneous,[1]; [13],66.9 °C
same,Average peak temperature (° C.) Simultaneous,[1]; [13],90.1 °C
same,Average maximum temperature increase (° C.) Substrate first,[1]; [14],63.0 °C
same,Average peak temperature (° C.) Substrate first,[1]; [14],85.1 °C
same,Average maximum temperature increase (° C.) Permanganate first,[1]; [15],76.7 °C
same,Average peak temperature (° C.) Permanganate first,[1]; [15],100.0 °C
same,Average maximum temperature increase (° C.) Simultaneous,[1]; [16],77.0 °C
same,Average peak temperature (° C.) Simultaneous,[1]; [16],100.2 °C
same,Average maximum temperature increase (° C.) Substrate first,[1]; [17],77.7 °C
same,Average peak temperature (° C.) Substrate first,[1]; [17],99.8 °C
same,"average temperature increase, permanganate-first","[1]; volume of sucrose solution increased to 2 mL, permanganate-first",44.6 °C
same,"average temperature increase, simultaneous","[1]; volume of sucrose solution increased to 2 mL, simultaneous injection",45.9 °C
same,"average temperature increase, sucrose-first","[1]; volume of sucrose solution increased to 2 mL, sucrose-first",51.0 °C
CCO [ethanol],apoptosis,HepG2 cells,induces apoptosis
same,cells died,"[2]; 1% ethanol, 24 hour exposure",> 90%
same,cell death,[2]; [18],> 90%
same,cells died,"[3]; 1% ethanol, 24 hour exposure",> 90%
same,cell death,[3]; [18],> 90%
same,cell death,"HuH-7 cells [4]; 2% ethanol, 6 hours of exposure",50%
same,cytotoxicity,"HuH-7 cells [4]; 4% ethanol, 2 hours",lethal
same,cytotoxicity,HuH-7 cells [4]; ethanol 3% (v/v),toxic
same,cytotoxicity,HuH-7 cells [4]; ethanol 5% (v/v),toxic
same,apoptosis by DNA laddering,MCF-7 cells; 10% ethanol for 6 hours,A similar result
same,apoptosis by DNA laddering,143B cells; 10% ethanol for 6 hours,A similar result
NC(N)=O [urea],cells survived,"HuH-7 cells [4]; 250 mM urea, 24 hours",50%
same,cells survived,"HuH-7 cells [4]; 750 mM urea, 6 hour exposure",about 50%
same,apoptosis by DNA laddering,MCF-7 cells; 1 M urea for 2 hours,induced apoptosis
same,apoptosis by DNA laddering,HuH-7 cells [5],induced apoptosis
same,apoptosis by DNA laddering,143B cells; 1 M urea for 2 hours,induced apoptosis
dextrin,average maximum temperature,[1],51.1 °C
maltodextrin,average maximum temperature,[1],42.5 °C
